Experimental data: the supplement of paper PMC11208160

Test: recombinant UMI read abundance after kanamycin selection (control-corrected) (log10(CPM+1)); higher = more efficient recombination; extreme values may be limits of the assay; sequences stand for … in AGTGCAGAGAAAATCGGCCAGTTTTCTCTGCCTGCAGTCCGCATGCCGTGGGACCCCTTGGGTTCTAACCTGTTGCCTAGATTTATGCAGCGGACTGCCTTTCTCCCAAAGTGATAAACCGG…AGGTTGGTTTCACT; site = the 11-nt donor
Procedure, shortened: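 Each donor and donor-binding-loop pair was tracked by a 12-nt UMI on a plasmid carrying a promoterless kanamycin gene. With a second plasmid supplying a fixed target and T7-inducible IS621 bridge recombinase, the pool was plated in Escherichia coli on IPTG (0.07 mM) plus kanamycin or unselected. Sequencing of recombinant UMIs across the donor–target junction gave counts expressed as log10(CPM+1) after replicate averaging and control-derived scaling.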

Row | Sequence | recombinant UMI read abundance (log10)
1 | TCTTCTACATGGACCGGTTTTCCCGGTAATCCGTATTTGAC (site TCTTCTACTGT) | 0
2 | TCTTCTGCATGGACCGGTTTTCCCGGTAATCCGTATTTGAT (site TCTTCTGCTAT) | 0
3 | TCTTTACCATGGACCGGTTTTCCCGGTAATCCGTATTTGGG (site TCTTTACCTCC) | 0.0231
4 | TCTTTACCATGGACCGGTTTTCCCGGTAATCCGTATTTGTA (site TCTTTACCTTA) | 0.00582
5 | TCTTTGGCATGGACCGGTTTTCCCGGTAATCCGTATTTGTG (site TATTTGGCTCA) | 0.0246
6 | TCTTTGGCATGGACCGGTTTTCCCGGTAATCCGTATTTGTG (site TCTTTGGCTCA) | 0.0151
7 | TCTTTGGCATGGACCGGTTTTCCCGGTAATCCGTATTTGTG (site TGTTTGGCTCA) | 0.0149
8 | TCTTTGGCATGGACCGGTTTTCCCGGTAATCCGTATTTGTG (site TTTTTGGCTCA) | 0.0253
9 | TGAAAATCATGGACCGGTTTTCCCGGTAATCCGTATTTGAT (site TGAAAATCTAT) | 0
10 | TGAAAGACATGGACCGGTTTTCCCGGTAATCCGTATTTGCA (site AGGAAGACTTG) | 2.91
11 | TGAAAGACATGGACCGGTTTTCCCGGTAATCCGTATTTGCA (site TGAAAGACTTG) | 2.45
12 | TGAACACCATGGACCGGTTTTCCCGGTAATCCGTATTTGAC (site TGAACACCTGT) | 0
13 | TGAACACCATGGACCGGTTTTCCCGGTAATCCGTATTTGAC (site TGCACACCTGT) | 0
14 | TGAACACCATGGACCGGTTTTCCCGGTAATCCGTATTTGAC (site TGGACACCTGT) | 0
15 | TGAACACCATGGACCGGTTTTCCCGGTAATCCGTATTTGAC (site TGTACACCTGT) | 0
16 | TGAAGAGCATGGACCGGTTTTCCCGGTAATCCGTATTTGCA (site TGAAGAGCTTG) | 2.54
17 | TGAAGCGCATGGACCGGTTTTCCCGGTAATCCGTATTTGCT (site TGAAGCGCTAG) | 2.01
18 | TGAATACCATGGACCGGTTTTCCCGGTAATCCGTATTTGTG (site TGAATACCTCA) | 0.0076
19 | TGACATTCATGGACCGGTTTTCCCGGTAATCCGTATTTGCT (site TGACATTCTAG) | 1.97
20 | TGACCTCCATGGACCGGTTTTCCCGGTAATCCGTATTTGAA (site TGACCTCCTTT) | 0.019
21 | TGACTATCATGGACCGGTTTTCCCGGTAATCCGTATTTGTA (site TGACTATCTTA) | 2.58
22 | TGACTCACATGGACCGGTTTTCCCGGTAATCCGTATTTGAC (site TGACTCACTGT) | 2.68
23 | TGAGAGGCATGGACCGGTTTTCCCGGTAATCCGTATTTGTA (site TGAGAGGCTTA) | 2.3
24 | TGAGATACATGGACCGGTTTTCCCGGTAATCCGTATTTGAG (site TGAGATACTCT) | 2.26
25 | TGAGGACCATGGACCGGTTTTCCCGGTAATCCGTATTTGCA (site TGAGGACCTTG) | 0

Row | Sequence | recombinant UMI read abundance (log10)
26 | TGAGTTTCATGGACCGGTTTTCCCGGTAATCCGTATTTGAG (site TGAGTTTCTCT) | 1.89
27 | TGATAGACATGGACCGGTTTTCCCGGTAATCCGTATTTGGA (site TGATAGACTTC) | 0.865
28 | TGATCAACATGGACCGGTTTTCCCGGTAATCCGTATTTGCT (site CGATCATCTAG) | 0
29 | TGATCAACATGGACCGGTTTTCCCGGTAATCCGTATTTGCT (site TGATCAACTAG) | 0.879
30 | TGATCATCATGGACCGGTTTTCCCGGTAATCCGTATTTGCT (site AGATCATCTAG) | 1.56
31 | TGATCATCATGGACCGGTTTTCCCGGTAATCCGTATTTGCT (site CGATCATCTAG) | 1.63
32 | TGATCATCATGGACCGGTTTTCCCGGTAATCCGTATTTGCT (site GGATCATCTAG) | 1.02
33 | TGATCATCATGGACCGGTTTTCCCGGTAATCCGTATTTGCT (site TGATCATCTAG) | 0.945
34 | TGATCCCCATGGACCGGTTTTCCCGGTAATCCGTATTTGTA (site TGATCCCCTTA) | 0.674
35 | TGATCCCCATGGACCGGTTTTCCCGGTAATCCGTATTTGTA (site TGCTCCCCTTA) | 0.195
36 | TGATCCCCATGGACCGGTTTTCCCGGTAATCCGTATTTGTA (site TGGTCCCCTTA) | 0.00213
37 | TGATCCCCATGGACCGGTTTTCCCGGTAATCCGTATTTGTA (site TGTTCCCCTTA) | 0.28
38 | TGATCCGCATGGACCGGTTTTCCCGGTAATCCGTATTTGCC (site TGATCCGCTGG) | 1.55
39 | TGCAAACCATGGACCGGTTTTCCCGGTAATCCGTATTTGGG (site TGCAAACCTCC) | 0.00989
40 | TGCAATCCATGGACCGGTTTTCCCGGTAATCCGTATTTGAA (site AGCAATCCTTT) | 0.00584
41 | TGCAATCCATGGACCGGTTTTCCCGGTAATCCGTATTTGAA (site CGCAATCCTTT) | 0.257
42 | TGCAATCCATGGACCGGTTTTCCCGGTAATCCGTATTTGAA (site GGCAATCCTTT) | 0.0354
43 | TGCAATCCATGGACCGGTTTTCCCGGTAATCCGTATTTGAA (site TGCAATCCTTT) | 1.16
44 | TGCACATCATGGACCGGTTTTCCCGGTAATCCGTATTTGCC (site TGCACATCTGG) | 0.35
45 | TGCACCGCATGGACCGGTTTTCCCGGTAATCCGTATTTGCG (site TACACCGCTCG) | 0.0133
46 | TGCACCGCATGGACCGGTTTTCCCGGTAATCCGTATTTGCG (site TCCACCGCTCG) | 0.0173
47 | TGCACCGCATGGACCGGTTTTCCCGGTAATCCGTATTTGCG (site TGCACCGCTCG) | 0.0216
48 | TGCACCGCATGGACCGGTTTTCCCGGTAATCCGTATTTGCG (site TTCACCGCTCG) | 0.00682
49 | TGCAGCACATGGACCGGTTTTCCCGGTAATCCGTATTTGCG (site TGCAGCACTCG) | 0.686
50 | TGCAGTGCATGGACCGGTTTTCCCGGTAATCCGTATTTGTA (site TGCAGTGCTTA) | 0.853

Row | Sequence | recombinant UMI read abundance (log10)
51 | TGCATCCCATGGACCGGTTTTCCCGGTAATCCGTATTTGAA (site TGCATCCCTTT) | 0.335
52 | TGCATTCCATGGACCGGTTTTCCCGGTAATCCGTATTTGTT (site TGCATTCCTAA) | 0
53 | TGCCAGGCATGGACCGGTTTTCCCGGTAATCCGTATTTGTC (site TGCCAGGCTGA) | 0
54 | TGCCATTCATGGACCGGTTTTCCCGGTAATCCGTATTTGAT (site TGCCATTCTAT) | 0
55 | TGCCCGGCATGGACCGGTTTTCCCGGTAATCCGTATTTGGC (site TGACCGGCTGC) | 0.0166
56 | TGCCCGGCATGGACCGGTTTTCCCGGTAATCCGTATTTGGC (site TGCCCGGCTGC) | 0
57 | TGCCCGGCATGGACCGGTTTTCCCGGTAATCCGTATTTGGC (site TGGCCGGCTGC) | 0
58 | TGCCCGGCATGGACCGGTTTTCCCGGTAATCCGTATTTGGC (site TGTCCGGCTGC) | 0
59 | TGCCGATCATGGACCGGTTTTCCCGGTAATCCGTATTTGCG (site TGCCGATCTCG) | 0.225
60 | TGCCGTACATGGACCGGTTTTCCCGGTAATCCGTATTTGCT (site AGCCGTACTAG) | 0.792
61 | TGCCGTACATGGACCGGTTTTCCCGGTAATCCGTATTTGCT (site CGCCGTACTAG) | 0.514
62 | TGCCGTACATGGACCGGTTTTCCCGGTAATCCGTATTTGCT (site GGCCGTACTAG) | 0
63 | TGCCGTACATGGACCGGTTTTCCCGGTAATCCGTATTTGCT (site TGCCGTACTAG) | 1.25
64 | TGCGACACATGGACCGGTTTTCCCGGTAATCCGTATTTGGT (site TGCGACACTAC) | 0.00309
65 | TGCGAGGCATGGACCGGTTTTCCCGGTAATCCGTATTTGGA (site TGCGAGGCTTC) | 0.00911
66 | TGCGTTACATGGACCGGTTTTCCCGGTAATCCGTATTTGTT (site TGCGTTACTAA) | 0.237
67 | TGCTAGGCATGGACCGGTTTTCCCGGTAATCCGTATTTGAT (site TGCTAGGCTAA) | 0.0172
68 | TGCTAGGCATGGACCGGTTTTCCCGGTAATCCGTATTTGAT (site TGCTAGGCTAC) | 0.0154
69 | TGCTAGGCATGGACCGGTTTTCCCGGTAATCCGTATTTGAT (site TGCTAGGCTAG) | 0
70 | TGCTAGGCATGGACCGGTTTTCCCGGTAATCCGTATTTGAT (site TGCTAGGCTAT) | 0.326
71 | TGCTATGCATGGACCGGTTTTCCCGGTAATCCGTATTTGGT (site TGCTAAGCTAC) | 0.0239
72 | TGCTATGCATGGACCGGTTTTCCCGGTAATCCGTATTTGGT (site TGCTACGCTAC) | 0.0173
73 | TGCTATGCATGGACCGGTTTTCCCGGTAATCCGTATTTGGT (site TGCTAGGCTAC) | 0.00428
74 | TGCTATGCATGGACCGGTTTTCCCGGTAATCCGTATTTGGT (site TGCTATGCTAC) | 0.262
75 | TGCTATTCATGGACCGGTTTTCCCGGTAATCCGTATTTGTA (site TGCTATTCTTA) | 1.33
